Reference: patent publication US20250345391A1, “COMPOSITIONS AND METHODS FOR THE TREATMENT OF SEPSIS” (Children's Hospital Medical Center, priority 2022, published 2025)

How the values were obtained:
[1] = test system: STAT3; assay: Western blot of STAT3 and phosphorylated forms in lung after CLP; type: in vivo, Male C57BL/6 mice; conditions: 6 h after CLP; colivelin 100 μg/kg i.p. at 1 h after CLP; vs vehicle
Source text: (§1) The investigation conformed to the National Institutes of Health Guide for the Care and Use of Laboratory Animals (Eighth Edition, 2011) and was approved by the Institutional Animal Care and Use Committee of the Cincinnati Children's Hospital Medical Center. Male C57BL/6 mice were obtained from Charles River Laboratories International, Inc. (Wilmington, MA). Mice were used at 3-5 months of age to mimic the equivalent for human ranges from 20-25 years (29). Male mice only were chosen for the experimentation to avoid interference from female hormonal fluctuations in sepsis responses during the estrous cycle. Mice were housed in pathogen-free conditions under a 10-h light/14-h dark cycle with free access to food and water. Mice were anesthetized with 2.0% isoflurane in 50% oxygen and polymicrobial sepsis was induced by cecal ligation and puncture (CLP) (30). After a midline laparotomy, the cecum was exteriorized, ligated and punctured twice with a 23-G needle. The cecum was then returned into the peritoneal cavity and the abdominal incision was closed. After the procedure, mice were randomly assigned to three treatment groups: a vehicle-treated group received distilled water (200 μl/mouse) intraperitoneally (i.p.); a 100 μg colivelin-treated group received the colivelin at 100 μg/kg i.p., and a 200 μg colivelin-treated group received the colivelin at 200 μg/kg i.p. at 1 h after CLP. The intraperitoneal injection was chosen to allow for a rapid uptake and bioavailability of the peptide. All groups of mice also received fluid resuscitation (35 ml/kg normal saline solution subcutaneously) immediately after, at 3 h and 12 h after the CLP procedure. To minimize pain at the surgical incision site, lidocaine hydrochloride (1%, 4 mg/kg total dose) was applied locally immediately after the procedure. […] Mice were then sacrificed at 0, 6 and 18 h after CLP. Blood, lungs, kidneys, liver, and thoracic aortas were collected for biochemical assays.
Subcellular fractionation was performed using a centrifugation model. […] The Bradford protein assay was then used for quantitative determination of total proteins.
Cytosol content of total AMPKα1/α2 and its phosphorylated form pAMPKα1/α2 (Santa Cruz Biotechnology, Dallas, TX, USA), cytosol and nuclear content of STAT3 and its phosphorylated forms pSTAT3(Tyr705) and pSTAT3(Ser727) (Cell Signaling Technology, Danvers, MA, USA) were determined by immunoblot analyses; β-actin was concomitantly probed with mouse anti-β-actin (Santa Cruz Biotechnology) as a loading control for both cytosol and nuclear proteins. […] The immunoreaction was detected by near-infrared fluorescence. […]

[2] = test system: polymicrobial sepsis by cecal ligation and puncture (CLP); assay: Long-term studies of severity of sepsis (survival, severity score, body weight) up to 7 days after CLP; type: in vivo, Male C57BL/6 mice
Source text: as §1
In a separate study, another cohort of mice was subjected to the CLP procedure and was used for assessing health and moribundity conditions, and survival rate up to 7 days. Mice were divided into two treatment groups in a blind and random fashion: a vehicle-treated group received distilled water (200 μl/mouse), and a colivelin-treated group received colivelin (100 μg/kg subcutaneously) at 1 h, 3 h and 24 h after the CLP procedure. Twelve animals were included for each group. One animal was sacrificed because of unintentional extensive damage in the small intestine during surgical procedure and was excluded from the study. The subcutaneous injection was chosen to avoid further stress in the peritoneum since the animals also received intraperitoneal treatment of antibiotics. To mimic the clinical management of antimicrobial coverage, all mice received ceftriaxone (25 mg/kg) and metronidazole (12.5 mg/kg) intraperitoneally every 12 h after CLP for three days. To minimize pain, buprenorphine (0.05 mg/kg) was administered subcutaneously at 1 h after surgery and every 12 h for three days after surgery. All groups of mice also received fluid resuscitation (35 ml/kg normal saline with 5% dextrose subcutaneously) every 24 h for all the duration of the experimental period. Although some spontaneous death occurred given the acute severity of the disease, spontaneous death was not considered as endpoint for this study for ethical reasons. […]

**Q.** What does the source list for Colivelin (SALLRSIPAPAGASRLLLLTGEIDLP)?
**A.** Cytosolic expression of pSTAT3(Ser727), lung [1]: significantly reduced; Cytosolic expression of pSTAT3(Tyr705), lung [1]: significantly reduced; Nuclear expression of pSTAT3(Ser727), lung [1]: lower than vehicle-treated mice, but not statistically significant; Nuclear expression of pSTAT3(Tyr705), lung [1]: lower than vehicle-treated mice, but not statistically significant; Health of survivor mice (severity score) at 6 and 7 days ([2]; 6 and 7 days after CLP, survivor mice, colivelin 100 μg/kg s.c., vs survivor vehicle-treated mice): significantly healthier; Mice survived at 7 days ([2]; 7 days after CLP, colivelin 100 μg/kg s.c. at 1 h, 3 h and 24 h, with antibiotics and fluids, vehicle 6 out of 12): 8 out of 11; Survival rate ([2]; 7 days after CLP, colivelin 100 μg/kg s.c. at 1 h, 3 h and 24 h, with antibiotics and fluids, vehicle 50%, not significant): 72.6%; Body weight, later time points ([2]; later than two days, up to 7 days after CLP, colivelin 100 μg/kg s.c., vs vehicle): vehicle-treated mice maintained a significant lower weight than colivelin-treated mice; Severity of signs of sepsis (severity score), all the observation period ([2]; up to 7 days after CLP, colivelin 100 μg/kg s.c. at 1 h, 3 h and 24 h, with antibiotics and fluids, vs vehicle): less severe signs of sepsis
